Experimental findings from PubChem BioAssay AID330 (DTP/NCI, 2004) are described below.

Each structure is given as a SMILES string. Several values for one entry are separate records, joined by “and”; a condition that tells them apart may be missing. Equal values may be shown once. Toxic doses and inconclusive results are not listed.

The assay concerns P388 leukemia ip, CD2F1 mice, survival T/C. In words: NCI In Vivo Anticancer Drug Screen. Data for tumor model P388 Leukemia (intraperitoneal) in CD2F1 (CDF1) mice. The settings on record: endpoint: median survival time, higher = longer survival. The method, boiled down:
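Mice carrying the transplanted tumor received test compound or vehicle. Survival was recorded in each group, and the value is the treated-group measurement divided by that of the vehicle-treated control group.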

Where [1] appears, read: dose: 60.0 mg/kg/injection, schedule: Q01DX005 (ip), vehicle: saline with Tween-80.
The mark [2] stands for this setting: dose: 120.0 mg/kg/injection, schedule: Q01DX005 (ip), vehicle: saline with Tween-80.
[3] abbreviates: dose: 50.0 mg/kg/injection, schedule: Q01DX009 (ip), vehicle: saline with Tween-80.
The mark [4] stands for this setting: dose: 100.0 mg/kg/injection, schedule: Q01DX009 (ip), vehicle: saline with Tween-80.
Setting [5] is: dose: 100.0 mg/kg/injection, schedule: Q04DX003 (ip), vehicle: saline with Tween-80.
[6] abbreviates: dose: 200.0 mg/kg/injection, schedule: Q01DX009 (ip), vehicle: saline with Tween-80.
Where [7] appears, read: dose: 400.0 mg/kg/injection, schedule: Q01DX009 (ip), vehicle: saline with Tween-80.
The mark [8] stands for this setting: dose: 400.0 mg/kg/injection, schedule: Q04DX003 (ip), vehicle: saline with Tween-80.
[9] abbreviates: dose: 50.0 mg/kg/injection, schedule: Q01DX005 (ip), vehicle: Klucel (hydroxypropylcellulose) (HPC).
[10] abbreviates: dose: 100.0 mg/kg/injection, schedule: Q01DX005 (ip), vehicle: Klucel (hydroxypropylcellulose) (HPC).
The mark [11] stands for this setting: dose: 200.0 mg/kg/injection, schedule: Q01DX005 (ip), vehicle: Klucel (hydroxypropylcellulose) (HPC).
[12] abbreviates: dose: 50.0 mg/kg/injection, schedule: Q01DX005 (ip), vehicle: saline with Tween-80.
Where [13] appears, read: dose: 100.0 mg/kg/injection, schedule: Q01DX005 (ip), vehicle: saline with Tween-80.
The mark [14] stands for this setting: dose: 200.0 mg/kg/injection, schedule: Q01DX005 (ip), vehicle: saline with Tween-80.

As for `COC1=C(C)C2CC(=O)OC3CC4C(C)CC(O)C(=O)C4(C)C(C1=O)C32C` (stereo unspecified), the T/C is 108 % of control (dose: 0.5 mg/kg/injection, schedule: Q01DX009 (ip), vehicle: saline + alcohol); 106 % of control (dose: 1.0 mg/kg/injection, schedule: Q01DX009 (ip), vehicle: saline + alcohol); 106 % of control (dose: 2.0 mg/kg/injection, schedule: Q01DX009 (ip), vehicle: saline + alcohol); 104 % of control (dose: 4.0 mg/kg/injection, schedule: Q01DX009 (ip), vehicle: saline + alcohol); 107 % of control (dose: 8.0 mg/kg/injection, schedule: Q01DX009 (ip), vehicle: saline + alcohol).
In the case of `COC(=O)c1cc(-c2cccc3ccccc23)[nH]c(=O)c1C#N`, the T/C is, setting by setting: under setting [1], 95 % of control; under setting [2], 100 % of control.
On to `C[N+]1(C)CCc2c([nH]c3ccccc23)C1`, for which the T/C was 95 % of control (dose: 100.0 mg/kg/injection, schedule: Q01DX001 (ip), vehicle: suspension in saline) and 107 % of control (dose: 200.0 mg/kg/injection, schedule: Q01DX001 (ip), vehicle: suspension in saline).
As to `COC1=C(C)C(=O)C2=C(C1=O)C1C3CC4=C(C(=O)C(OC)=C(C)C4=O)C(CNC(=O)C(C)O)N3C(C#N)C(C2)N1C` (stereo unspecified), the T/C (dose: 2.5 mg/kg/injection, schedule: Q01DX005 (ip), vehicle: Klucel (hydroxypropylcellulose) (HPC)) was 155 % of control and 161 % of control.
Consider `NC(Cc1cnc[nH]1)C(=O)O` (stereo unspecified), for which the T/C is, setting by setting: (dose: 50.0 mg/kg/injection, schedule: Q01DX009 (ip), vehicle: saline) 110 % of control; (dose: 100.0 mg/kg/injection, schedule: Q01DX009 (ip), vehicle: saline) 107 % of control; (dose: 200.0 mg/kg/injection, schedule: Q01DX009 (ip), vehicle: saline) 110 % of control.
Consider `c1ccc2c(c1)NC(NC1Nc3ccccc3N1)N2`, for which the T/C by setting is: (dose: 30.0 mg/kg/injection, schedule: Q01DX005 (ip), vehicle: saline with Tween-80) 91 % of control; under setting [1], 86 % of control and 97 % of control.
Regarding `Cc1ccc(-c2c3c(c(-c4ccc(C)cc4)c(-c4ccccc4)c2-c2ccccc2)-c2ccccc2C3)cc1`, the T/C was 98 % of control (dose: 12.5 mg/kg/injection, schedule: Q01DX009 (ip), vehicle: saline with Tween-80); 98 % of control (dose: 25.0 mg/kg/injection, schedule: Q01DX009 (ip), vehicle: saline with Tween-80); 99 % of control and 89 % of control under setting [3].
Consider `CC1=NC(c2ccccn2)=NNC(c2ccccn2)=C1c1ccccc1`, for which the T/C (dose: 25.0 mg/kg/injection, schedule: Q01DX009 (ip), vehicle: other) was 113 % of control; the T/C (dose: 50.0 mg/kg/injection, schedule: Q01DX009 (ip), vehicle: other) was 116 % of control; the T/C (dose: 100.0 mg/kg/injection, schedule: Q01DX009 (ip), vehicle: other) is 116 % of control; the T/C (dose: 200.0 mg/kg/injection, schedule: Q01DX009 (ip), vehicle: other) was 114 % of control; the T/C (dose: 400.0 mg/kg/injection, schedule: Q01DX009 (ip), vehicle: other) was 120 % of control.
`O=C(Nc1ccc(C2=NCCN2)cc1)C1CCC(C(=O)Nc2ccc(C3=NCCN3)cc2)CC1` (stereo unspecified): the T/C reads like this: under setting [4], 227 % of control; under setting [5], 154 % of control; under setting [6], 209 % of control; (dose: 200.0 mg/kg/injection, schedule: Q04DX003 (ip), vehicle: saline with Tween-80) 186 % of control; (dose: 264.0 mg/kg/injection, schedule: Q04DX003 (ip), vehicle: saline with Tween-80) 213 % of control; under setting [7], 118 % of control. Besides, the T/C is, setting by setting: under setting [8], 231 % of control and 254 % of control; (dose: 600.0 mg/kg/injection, schedule: Q04DX003 (ip), vehicle: saline with Tween-80) 236 % of control.
In the case of `COc1ccccc1P(=S)(c1ccccc1)c1ccccc1`, the T/C was 99 % of control under setting [9], 99 % of control under setting [10] and 96 % of control under setting [11].
Take `O=[N+]([O-])c1ccc(-c2nc3ccc(F)cc3[nH]2)o1`: the T/C by setting is: under setting [1], 101 % of control; under setting [2], 97 % of control; (dose: 240.0 mg/kg/injection, schedule: Q01DX005 (ip), vehicle: saline with Tween-80) 104 % of control.
In the case of `O=C(O)CBr`, the T/C (dose: 25.0 mg/kg/injection, schedule: Q01DX005 (ip), vehicle: other) was 110 % of control.
Turning to `O=CNc1cccnc1C1OCCO1`, the T/C reads like this: under setting [9], 98 % of control; under setting [10], 102 % of control; under setting [11], 102 % of control.
Turning to `CCN1CCC(OC(=O)c2ccccc2)(c2nccc3ccccc23)CC1`, the T/C under setting [3] is 112 % of control.
For `OCCN(CCO)C1c2ccccc2-c2ccccc21`, the T/C is 98 % of control under setting [12], 89 % of control under setting [13] and 90 % of control under setting [14].
With `CN(C)c1ccc(/C=c2\[nH]c(=O)/c(=C\c3ccc(N(C)C)cc3)[nH]c2=O)cc1`, the T/C is 97 % of control (dose: 12.5 mg/kg/injection, schedule: Q01DX001 (ip), vehicle: saline with Tween-80); 99 % of control (dose: 25.0 mg/kg/injection, schedule: Q01DX001 (ip), vehicle: saline with Tween-80); 99 % of control (dose: 50.0 mg/kg/injection, schedule: Q01DX001 (ip), vehicle: saline with Tween-80); 98 % of control under setting [3]; 99 % of control (dose: 100.0 mg/kg/injection, schedule: Q01DX001 (ip), vehicle: saline with Tween-80); 90 % of control under setting [4]. Besides, the T/C is, setting by setting: under setting [6], 87 % of control; under setting [7], 90 % of control.
As for `c1ccc2c(c1)ccc1cccnc12`, the T/C under setting [12] was 93 % of control, the T/C under setting [13] was 93 % of control and the T/C under setting [14] is 102 % of control.
As for `C=C1C(=O)C23C(OC(=O)CCCCCCCCC)C1CCC2C12COC3(O)C(O)C1C(C)(C)CCC2O` (stereo unspecified), the T/C runs as follows: (dose: 3.75 mg/kg/injection, schedule: Q01DX009 (ip), vehicle: saline with Tween-80) 103 % of control; (dose: 7.5 mg/kg/injection, schedule: Q01DX009 (ip), vehicle: saline with Tween-80) 98 % of control; (dose: 15.0 mg/kg/injection, schedule: Q01DX009 (ip), vehicle: saline with Tween-80) 96 % of control; (dose: 30.0 mg/kg/injection, schedule: Q01DX009 (ip), vehicle: saline with Tween-80) 106 % of control.
Regarding `CN(Cc1ccccc1)C1=CC(=O)C(N(C)Cc2ccccc2)=CC1=O`, the T/C under setting [12] was 105 % of control, the T/C under setting [13] is 115 % of control and the T/C under setting [14] is 101 % of control.
As for `COc1cc(/C=N/Nc2ccc([N+](=O)[O-])cc2)cc(OC)c1OC`, the T/C under setting [5] was 95 % of control and the T/C under setting [8] is 87 % of control.
Take `CC(=O)Nc1c([N+](=O)[O-])cc2c3c(cccc13)CC2`: the T/C under setting [4] was 86 % of control and the T/C under setting [6] is 90 % of control.
As for `CC1(C)OS(=O)(=O)C=C1Br`, the T/C was 96 % of control (dose: 100.0 mg/kg/injection, schedule: Q04DX003 (ip), vehicle: saline); 110 % of control (dose: 200.0 mg/kg/injection, schedule: Q04DX003 (ip), vehicle: saline); 103 % of control (dose: 400.0 mg/kg/injection, schedule: Q04DX003 (ip), vehicle: saline).
`CCc1cccc(CC)c1NC(=O)OCCN(CC)CC`: the T/C by setting is: under setting [1], 100 % of control; under setting [2], 94 % of control.
Take `CC(C)(C)C(N)=S=O`: the T/C is, setting by setting: (dose: 50.0 mg/kg/injection, schedule: Q01DX005 (ip), vehicle: saline) 101 % of control; (dose: 100.0 mg/kg/injection, schedule: Q01DX005 (ip), vehicle: saline) 106 % of control; (dose: 200.0 mg/kg/injection, schedule: Q01DX005 (ip), vehicle: saline) 106 % of control.
Regarding `O=C(O)c1cc2ccccc2c2c1C(=O)c1ccccc1-2`, the T/C by setting is: under setting [3], 90 % of control; under setting [4], 95 % of control; under setting [6], 91 % of control.
Take `COc1ccc(C2CC(c3ccccc3)=Nc3ccccc3S2)cc1` (stereo unspecified): the T/C by setting is: (dose: 50.0 mg/kg/injection, schedule: Q01DX009 (ip), vehicle: Klucel (hydroxypropylcellulose) (HPC)) 101 % of control; (dose: 100.0 mg/kg/injection, schedule: Q01DX009 (ip), vehicle: Klucel (hydroxypropylcellulose) (HPC)) 108 % of control; (dose: 200.0 mg/kg/injection, schedule: Q01DX009 (ip), vehicle: Klucel (hydroxypropylcellulose) (HPC)) 108 % of control.
